According to patent publication US20150209327A1, “METHODS FOR THE TREATMENT OF OBESITY USING APREMILAST” (Celgene Corporation, priority 2014, published 2015):

What was measured:
[1] = Apremilast Data Pool: weight change; format: in vivo, human
Source text: Similar results of weight loss were reported for the Apremilast Data Pool. A weight decrease was reported during the Placebo-controlled Period (24 weeks) in 3 (0.2%) subjects who received placebo and 26 (0.9%) subjects who received apremilast, including 8 (0.8%) subject in the APR 20 BID group, and 18 (1.1%) subjects in the APR 30 BID group.
The end-of-period value is the last postbaseline value (only through the Placebo-controlled Period for placebo-treated subjects) including data up to 28 days after the last dose of investigational product but excluding the observational follow-up visit.
The end-of-period value is the last postbaseline value (while subjects were receiving apremilast), including data up to 28 days after the last dose of apremilast but excluding the observational follow-up visit.

PDE3 = PDE3 enzyme assay; format: biochemical; conditions: at 10 μM
Method: PDE1, 2, 3 and 5 enzyme assays were prepared as described by Hidaka and Asano. Biochem. Biophys. Acta., 1976, 429:485; see also Nicholsen et al., Trends Pharmaco. Sci., 1991, 12:19. The PDE6 enzyme assay was prepared according to Baehr et al., J. Biol. Chem., 1979, 254:11669 and Gillespie et al., Mol. Pharm., 1989, 36: 773. The PDE7 enzyme assay was prepared according to Bloom and Beavo. Proc. Natl. Acad. Sci. USA, 1996, 93:14188-92.

[2] = 20 mg BID, Placebo-controlled Period, Subjects as Initially Treated at Week 0, m = 900
[3] = 30 mg BID, Apremilast-exposure Period
[4] = 30 mg BID, Apremilast-exposure Period, Apremilast Subjects as Treated, m = 2268
[5] = 30 mg BID, Placebo-controlled Period
[6] = 30 mg BID, Placebo-controlled Period, Subjects as Initially Treated at Week 0, m = 1541
[7] = APR Total, Apremilast-exposure Period, Apremilast Subjects as Treated, m = 3606
[8] = APR Total, Placebo-controlled Period, Subjects as Initially Treated at Week 0, m = 2591

Question: Which results are given for `CCOc1cc([C@@H](CS(C)(=O)=O)N2C(=O)c3cccc(NC(C)=O)c3C2=O)ccc1OC` [Apremilast, (+)-2-[1-(3-ethoxy-4-methoxyphenyl)-2-methylsulfonylethyl]-4-acetylaminoisoindoline-1,3-dione]?
Answer: Weight % Change Category >0% to ≦5%, n (%) [1, 2]: 277 (30.8) n (%); Weight % Change Category >5% to ≦10%, n (%) [1, 2]: 262 (2.9) n (%); Weight % Change Category >10% to ≦20%, n (%) [1, 2]: 2 (0.2) n (%); Weight % Change Category >20%, n (%) [1, 2]: 0 n (%); Weight % Change Category ≧−5% to <0%, n (%) [1, 2]: 393 (43.7) n (%); Weight % Change Category ≧−10% to <−5%, n (%) [1, 2]: 84 (9.3) n (%); Weight % Change Category ≧−20% to <−10%, n (%) [1, 2]: 16 (1.8) n (%); mean weight change from baseline ([1]; 20 mg BID, end of the Apremilast-exposure Period): -1.09 kg; mean weight change from baseline ([1]; 20 mg BID, end of the Placebo-controlled Period, Subjects as Initially Treated at Week 0): -1.01 kg; observed weight loss of greater than 10%, % subjects [1, 3]: 4.9%; weight decrease reported, subjects n (%) [1, 3]: 36 (1.5%) n (%); Weight % Change Category 0%, n (%) [1, 4]: 162 (7.1) n (%); Weight % Change Category <−20%, n (%) [1, 4]: 11 (0.5) n (%); Weight % Change Category >0% to ≦5%, n (%) [1, 4]: 610 (26.9) n (%); Weight % Change Category >5% to ≦10%, n (%) [1, 4]: 116 (5.1) n (%); Weight % Change Category >10% to ≦20%, n (%) [1, 4]: 29 (1.3) n (%); Weight % Change Category >20%, n (%) [1, 4]: 5 (0.2) n (%); Weight % Change Category ≧−5% to <0%, n (%) [1, 4]: 923 (40.7) n (%); Weight % Change Category ≧−10% to <−5%, n (%) [1, 4]: 311 (13.7) n (%); Weight % Change Category ≧−20% to <−10%, n (%) [1, 4]: 101 (4.5) n (%); observed weight loss of greater than 10%, subjects n (%) [1, 5]: 23 (1.5%) n (%); percentage of subjects with weight change of >−10% to <−5% [1, 5]: 11.3%; weight decrease reported, subjects n (%) ([1]; 30 mg BID, Placebo-controlled Period (24 weeks)): 18 (1.1%) n (%); Weight % Change Category 0%, n (%) [1, 6]: 159 (10.3) n (%); Weight % Change Category <−20%, n (%) [1, 6]: 1 (0.1) n (%); Weight % Change Category >0% to ≦5%, n (%) [1, 6]: 410 (26.6) n (%); Weight % Change Category >5% to ≦10%, n (%) [1, 6]: 37 (2.4) n (%); Weight % Change Category >10% to ≦20%, n (%) [1, 6]: 8 (0.5) n (%); Weight % Change Category >20%, n (%) [1, 6]: 1 (0.1) n (%); Weight % Change Category ≧−5% to <0%, n (%) [1, 6]: 729 (47.3) n (%); Weight % Change Category ≧−10% to <−5%, n (%) [1, 6]: 174 (11.3) n (%); Weight % Change Category ≧−20% to <−10%, n (%) [1, 6]: 22 (1.4) n (%); mean weight change from baseline ([1]; 30 mg BID, end of the Apremilast-exposure Period): -1.41 kg; mean weight change from baseline ([1]; 30 mg BID, end of the Placebo-controlled Period, Subjects as Initially Treated at Week 0): -1.21 kg; Weight % Change Category 0%, n (%) [1, 7]: 325 (8.3) n (%); Weight % Change Category <−20%, n (%) [1, 7]: 14 (0.4) n (%); Weight % Change Category >0% to ≦5%, n (%) [1, 7]: 1109 (28.4) n (%); Weight % Change Category >5% to ≦10%, n (%) [1, 7]: 179 (4.6) n (%); Weight % Change Category >10% to ≦20%, n (%) [1, 7]: 48 (1.2) n (%); Weight % Change Category >20%, n (%) [1, 7]: 6 (0.2) n (%); Weight % Change Category ≧−5% to <0%, n (%) [1, 7]: 1602 (41.0) n (%); Weight % Change Category ≧−10% to <−5%, n (%) [1, 7]: 466 (11.9) n (%); Weight % Change Category ≧−20% to <−10%, n (%) [1, 7]: 157 (4.0) n (%); Weight % Change Category 0%, n (%) [1, 8]: 280 (10.8) n (%); Weight % Change Category <−20%, n (%) [1, 8]: 3 (0.1) n (%); Weight % Change Category >0% to ≦5%, n (%) [1, 8]: 741 (28.6) n (%); Weight % Change Category >5% to ≦10%, n (%) [1, 8]: 66 (2.5) n (%); Weight % Change Category >10% to ≦20%, n (%) [1, 8]: 12 (0.5) n (%); Weight % Change Category >20%, n (%) [1, 8]: 1 (<0.1) n (%); Weight % Change Category ≧−5% to <0%, n (%) [1, 8]: 1187 (45.8) n (%); Weight % Change Category ≧−10% to <−5%, n (%) [1, 8]: 263 (10.2) n (%); Weight % Change Category ≧−20% to <−10%, n (%) [1, 8]: 38 (1.5) n (%); body weight of the majority of subjects ([1]; Placebo-controlled Period and Apremilast-exposure Period): maintained their body weight within 0% and 5% of baseline; weight decrease reported, subjects n (%) ([1]; all subjects who received apremilast, Placebo-controlled Period (24 weeks)): 26 (0.9%) n (%); % inhibition of PDE3 (PDE3): 20%
